Reference: patent US12319655B2, “RAF kinase inhibitors and methods of use thereof” (Deciphera Pharmaceuticals, LLC, priority 2021, dated 2025)
pIC50: −log10 of the molar value.

Tests used:
Miapaca-2 cells = test: MiaPaca-2 Combination Cell proliferation Assay (1) with cobimetinib; type: cell-based; settings: MiaPaca-2 cell proliferation, read-out: MiaPaca-2 Combo (1) IC50
WM3629 cells = test: WM3629 Cell Proliferation Assay (1); type: cell-based
Method: WM3629 Cell Proliferation Assay (1)
WM3629 cells (#WM3629-01-0001) are obtained from Rockland Immunochemicals Inc (Gilbertsville, PA). Briefly, cells were grown in MCDB 153 medium (Sigma, #M7403, St. Louis, MO) supplemented with 20% Leibovitz's L-15 (ThermoFisher #11415-064, Waltham, MA), 2% heat inactivated fetal bovine serum (ThermoFisher, #A3840001, Waltham, MA), 5 μg/mL Insulin (Bovine Pancreas) (Sigma, #10516, St. Louis, MO), 1.68 mM Calcium Chloride (Sigma, #C-34006, St. Louis, MO) and 1% Penicillin/Streptomycin/L-Glutamine (ThermoFisher #10378016, Waltham, MA) at 37° C., 5% CO2, and 95% humidity. Cells are expanded until reaching 70-95% confluency at which point they are subcultured or harvested for assay use. A serial dilution of test compound is dispensed into a 96-well black clear bottom plate in triplicate. Four thousand five hundred cells are added per well in 200 μL complete growth medium in the 96-well plate. Plates are incubated for 67-72 hours at 37° C., 5% CO2, and 95% humidity. At the end of the incubation, 40 μL of a 440 μM solution of resazurin (Sigma, #199303, St. Louis, MO) in PBS is added to each well of the plate and plates are incubated for an additional 6-7 hours at 37° C., 5% CO2, and 95% humidity. Plates are read on a Synergy2 or equivalent reader (Biotek, Winooski VT) using an excitation of 540 nm and an emission of 600 nm. Data is analyzed using Prism software (GraphPad, San Diego, CA) to calculate IC50 values.

Row | Compound | pIC50 (Miapaca-2 cells) | pIC50 (WM3629 cells)
1 | Cc1ccc(NC(=O)c2ccnc(C(C)(C)C#N)c2)cc1-c1ccnc(-c2ccnc3c2CC(=O)N3)c1 [Example 23] | 6.30 to 7.00 | 
2 | CC(=O)Nc1cc(-c2nccc(-c3cc(NC(=O)c4ccnc(C(F)(F)F)c4)ccc3C)n2)ccn1 [Example 24] | ≥ 7.00 | 
3 | CNC(=O)c1cc(-c2nccc(-c3cc(NC(=O)c4ccnc(C(F)(F)F)c4)ccc3C)n2)ccn1 [Example 25] | ≥ 7.00 | 
4 | CC(=O)Nc1cc(-c2cc(-c3cc(C(=O)Nc4ccnc(C(F)(F)F)c4)ccc3C)ccn2)ccn1 [Example 26] | ≥ 7.00 | 
5 | CNC(=O)c1cc(-c2cc(-c3cc(NC(=O)c4ccnc(C(F)(F)F)c4)ccc3C)cc(C3CC3)n2)ccn1 [Example 27] | 6.00 to 6.30 | 
6 | CC(=O)Nc1cc(-c2cccc(-c3cc(NC(=O)c4ccnc(C(F)(F)F)c4)ccc3C)c2)ccn1 [Example 28] | ≥ 7.00 | 
7 | COC(=O)Nc1cc(-c2cc(-c3cc(NC(=O)c4ccnc(C(C)(C)C#N)c4)cnc3C)ccn2)ccn1 [Example 297] | ≥ 7.00 | 
8 | COC(=O)Nc1cc(-c2cc(-c3cc(NC(=O)c4ccnc(C(C)(C)F)c4)c(F)cc3C)ccn2)ccn1 [Example 302] | ≥ 7.00 | ≥ 7.00
9 | COC(=O)Nc1cc(-c2cc(-c3cc(NC(=O)c4ccnc(C(C)(C)C#N)c4)c(F)cc3C)ccn2)ccn1 [Example 308] | ≥ 7.00 | ≥ 7.00
10 | COC(C)(C)c1cc(C(=O)Nc2ccc(C)c(-c3cc(-c4ccnc(NC(=O)C5CC5)c4)cnn3)c2)ccn1 [Example 319] | ≥ 7.00 | 
11 | Cc1ccc(NC(=O)c2cnn(C(C)(C)C)c2)cc1-c1cc(-c2ccnc(NC(=O)C3CC3)c2)cnn1 [Example 321] |  | ≥ 7.00
12 | CNC(=O)c1cc(-c2cnnc(-c3cc(NC(=O)c4ccnc(C(C)(C)F)c4)ccc3C)c2)ccn1 [Example 325] |  | ≥ 7.00
13 | CNC(=O)c1cc(-c2cnnc(-c3cc(NC(=O)c4ccnc(C(F)F)c4)ccc3C)c2)ccn1 [Example 327] |  | 5.00 to 6.00

The next lines start with results.

Row | pIC50 (Miapaca-2 cells) | Compound | pIC50 (WM3629 cells)
14 | ≥ 7.00 | CC(=O)Nc1cc(-c2cncc(-c3cc(NC(=O)c4ccnc(C(F)(F)F)c4)ccc3C)n2)ccn1 [Example 29] | 
15 | ≥ 7.00 | CC(=O)Nc1cc(-c2cccc(-c3cc(NC(=O)c4ccnc(C(F)(F)F)c4)ccc3C)c2)ncn1 [Example 30] | 
16 | ≥ 7.00 | COC(=O)Nc1cc(-c2cccc(-c3cc(NC(=O)c4ccnc(C(C)(C)C#N)c4)cnc3C)c2)ccn1 [Example 282] | 
17 | ≥ 7.00 | COC(=O)Nc1cc(-c2nccc(-c3cc(NC(=O)c4ccnc(C(C)(C)C#N)c4)c(F)cc3C)n2)ccn1 [Example 303] | ≥ 7.00
18 | ≥ 7.00 | COC(=O)Nc1cc(-c2nccc(-c3cc(NC(=O)c4ccnc(C(C)(C)F)c4)c(F)cc3C)n2)ccn1 [Example 304] | ≥ 7.00
19 | ≥ 7.00 | Cc1ccc(NC(=O)c2ccnc(C(C)(C)F)c2)cc1-c1cc(-c2ccnc(NC(=O)C3CC3)c2)cnn1 [Example 315] | ≥ 7.00
20 | 5.00 to 6.00 | CNC(=O)c1cc(-c2cc(-c3cc(NC(=O)COCC4CC4)ccc3C)ccn2)ccn1 [Example 358] | 
